Measured values from patent publication US12473308B2, “Luminescent silafluorene and germafluorene compounds” (The Curators Of The University Of Missouri, priority 2019, dated 2025).
“Also recorded” adds a separate entry of the source.

Key:
[1] = system: ExpiCHO cells; test: Fluorescence staining of CHO cells; assay type: cell-based; details: 10 μM, 15 minutes
Experimental: (§1) The surfactants are 0.6 mM TX-100, 25 mM CHAPS, 20 mM CTAB, 30 mM SDS, and 10 mM SDBS. ExpiCHO cells were stained with 10 μM 3Si for 15 minutes. Experimental details include Gains: 762; Digital gains: 2.3; Pinhole: 1 AU; and 2% Laser intensity.

[2] = Fluorescence change upon addition of detergent Triton X-100; details: for spectral change when Triton X-100 is added: neutral detergent Triton X-100
Experimental: (§2) Non-denaturing detergents, common proxies for membranes and lipids, were added to each compound. […] Moreover, the degree of enhancement is very sensitive to the aggregation state of the detergent: enhancement is more dramatic at concentrations at which the detergents are known to form micellar aggregates (critical micelle concentration).
Detergents enhance fluorescence. Triton X-100 (TX100) was added to each metallafluorene at concentrations below and above TX-100's CMC (0.3 mM), and fluorescence was measured (FIGS. 31A, 31B, and 32).
as §2, with “(i.e. the critical” for “(critical”

[3] = Quantum yield in aqueous solution (Tris) and in the presence of surfactants; assay type: physicochemical; details: for φTX (quantum yield): 0.6 mM TX-100; for φSBDS (quantum yield): 10 mM SDBS; for φCTAB (quantum yield): 20 mM CTAB; for φCHAPS (quantum yield): 25 mM CHAPS; for φSDS (quantum yield): 30 mM SDS; for φTris (quantum yield): aqueous solution, Tris, no surfactant
Experimental: (§3) Quantum yields were collected for these compounds in aqueous solution and in the presence of the aforementioned surfactants and the data are shown in Table 2. Quantum yields in the presence of surfactants are markedly higher than in their absence. In the presence of detergents, the quantum yield is recovered to near perfect quantum efficiency.
as §1

[4] = Solubility in DMSO and in aqueous solution; assay type: physicochemical; details: for solubility in aqueous solution: aqueous solutions / aqueous buffer, diluted from DMSO
Text: Studies have been conducted herein for a series of silafluorenes with a broad range of alkynyl substituent groups: 3Si, 4Si, 7Si, […], 9Si, and 11Si, and 13Si. […] This provides a tunability to the optical behavior that is useful for bioimaging.
This provides a tunability to the optical behavior that is useful for imaging (FIG. 40).

[5] = Quantum yield in CH2Cl2 (DCM) solution; assay type: physicochemical
Text: (§4) These new compounds (3Si/3Ge through 8Si %8Ge) show a strong absorption band in CH2Cl2 solution in the region of 371-394 nm (log ε values ranged from 4.25-5.23) and emission maxima in the region of 401-452 nm. The quantum efficiencies determined from solution samples containing the silafluorenes 3Si-8Si were high (0.80-0.87) and the related germafluorenes 3Ge-8Ge had slightly lower values between 0.64-0.83. […] The solid-state quantum yields have been measured for several of the sila- and germafluorenes. The solid-state quantum yields for 7 compounds have been measured and the values range from 0.14 to 0.91 with the highest values for compounds 5Ge […] and 6Ge (0.81). Additional quantum yield measurements both in solution and in the solid-state are made for other compounds shown in Scheme 2 (FIG. 2).
The silafluorenes show intense fluorescence both in solution and in the solid-state (FIG. 11). The quantum yield range in CH2Cl2 solution is 0.80-0.89 for several silafluorenes studied to date.
as §3

[6] = Solid-state quantum yield; assay type: physicochemical
Text: as §4

[7] = system: calf thymus (mixed sequence) DNA; test: Spectroscopic DNA binding study; details: aqueous buffer, calf thymus DNA added
[8] = system: yeast cells (S. cerevisiae); test: Fluorescence confocal microscopy of yeast cells; assay type: cell-based; details: permeabilized with DMSO, 405 nm laser, 100×
Experimental: S. cerevisiae were stained with 2,7-bis(4-ethynylphenanthrene)-3,6-dimethoxy-9,9-diphenylsilafluorene, referred to as Si phenanthrene, for 1 hour, then imaged on a confocal microscope (FIGS. 35 and 36).
S. cerevisiae were stained with 2,7-bis(4-ethynylbenzaldehyde)-3,6-dimethoxy-9,9-diphenylsilafluorene, referred to as Si benzaldehyde, for 1 hour, then imaged on a confocal microscope (FIG. 37). Again, DMSO was used to permeabilize cells.

[9] = Solvatochromism: emission in different solvents; assay type: physicochemical
Text: Solvents, like water and dichloromethane, greatly affect the fluorescence energy (i.e., color) of some molecules—this is called solvatochromism. Excited electrons may mobilize across the molecule more easily in these cases. For example, 2,7-bis(4-ethynylbenzaldehyde)-3,6-dimethoxysilafluorene emits green in ethanol, but blue in nonpolar solvents (FIGS. 23-24).

[10] = Absorption and emission in CH2Cl2 solution and in the solid-state; assay type: physicochemical
Text: as §4

φTX (quantum yield) [3] | φSBDS (quantum yield) [3] | φCTAB (quantum yield) [3] | φCHAPS (quantum yield) [3] | φSDS (quantum yield) [3] | φTris (quantum yield) [3] | solubility in aqueous solution [4] | φDCM (quantum yield) [5] | SMILES | spectral change when Triton X-100 is added [2] | solubility in DMSO [4] | also measured
1.0 ± 0.04 | 0.49 ± 0.09 | 0.98 | 0.90 ± 0.02 | 0.55 ± 0.03 | 0.34 ± 0.005 | low micromolar concentrations | 0.80 | COc1cc2c(cc1C#Cc1cccc(F)c1)[Si](c1ccccc1)(c1ccccc1)c1cc(C#Cc3cccc(F)c3)c(OC)cc1-2 [3Si] | dramatic blue shifts and emission enhancements |  | fluorescence inside cells [1]: observed inside of CHO cells; emission enhancement upon the addition of detergent/membrane mimics (comparison) [2]: comparable
0.97 ± 0.04 | 0.56 | 0.93 | 0.86 | 0.55 | 0.24 ± 0.01 | low micromolar concentrations | 0.89 | COc1cc2c(cc1C#Cc1ccc(C)cc1)[Si](c1ccccc1)(c1ccccc1)c1cc(C#Cc3ccc(C)cc3)c(OC)cc1-2 [4Si] | dramatic blue shifts and emission enhancements | low millimolar concentrations; also recorded: low micromolar concentrations | 
 |  |  |  |  |  |  |  | COc1cc2[c](cc1C#Cc1ccc(C(C)(C)C)cc1)[Ge]([c]1ccccc1)([c]1ccccc1)[c]1cc(C#Cc3ccc(C(C)(C)C)cc3)c(OC)cc1-2 [5Ge] |  |  | solid-state quantum yield [6]: 0.92
 |  |  |  |  |  |  |  | COc1cc2[c](cc1C#Cc1ccc(Oc3ccccc3)cc1)[Ge]([c]1ccccc1)([c]1ccccc1)[c]1cc(C#Cc3ccc(Oc4ccccc4)cc3)c(OC)cc1-2 [6Ge] |  |  | solid-state quantum yield [6]: 0.81
0.94 ± 0.05 | 0.73 | 0.93 | 0.32 | 0.88 ± 0.05 | 0.11 ± 0.01 | low micromolar concentrations | 0.82 | COc1cc2c(cc1C#Cc1ccc(-c3ccccc3)cc1)[Si](c1ccccc1)(c1ccccc1)c1cc(C#Cc3ccc(-c4ccccc4)cc3)c(OC)cc1-2 [7Si] |  | low millimolar concentrations; also recorded: low micromolar concentrations; also recorded: least soluble | 
0.85 ± 0.06 | 0.47 | 0.99 | 0.93 | 0.30 | 0.094 ± 0.01 | low micromolar concentrations | 0.75 | COc1ccc2cc(C#Cc3c[c]4c(cc3OC)-c3cc(OC)c(C#Cc5ccc6cc(OC)ccc6c5)c[c]3[Ge]4([c]3ccccc3)[c]3ccccc3)ccc2c1 [8Ge] |  | low millimolar concentrations; also recorded: low micromolar concentrations | 
 |  |  |  |  |  | low micromolar concentrations |  | COc1cc2c(cc1C#Cc1cccc3ccc4ccccc4c13)[Si](c1ccccc1)(c1ccccc1)c1cc(C#Cc3cccc4ccc5ccccc5c34)c(OC)cc1-2 [9Si, 2,7-bis(4-ethynylphenanthrene)-3,6-dimethoxy-9,9-diphenylsilafluorene] | dramatic blue shifts and emission enhancements | low millimolar concentrations; also recorded: low micromolar concentrations | change of fluorescence emission upon addition of DNA [7]: decrease in fluorescence emission; emission enhancement upon the addition of detergent/membrane mimics (comparison) [2]: greatest emission enhancement; staining pattern in cells [8]: either localizing onto an intracellular structure or self-aggregating within the cell; solubility in DMSO ([4]; listed as 9.1): least soluble; solubility in aqueous solution ([4]; listed as 2,7-bis-alkynyl(phenanthrene)silafluorene): low micromolar concentration
 |  |  |  |  |  | low micromolar concentrations |  | COc1cc2c(cc1C#Cc1ccc(-n3c4ccccc4c4ccccc43)cc1)[Si](c1ccccc1)(c1ccccc1)c1cc(C#Cc3ccc(-n4c5ccccc5c5ccccc54)cc3)c(OC)cc1-2 [11Si] |  | low millimolar concentrations; also recorded: low micromolar concentrations | 
 |  |  |  |  |  |  |  | FC(F)(F)c1ccc(C#Cc2cc[c]3c(c2)-c2cc(C#Cc4ccc(C(F)(F)F)cc4)cc[c]2[Ge]3([c]2ccccc2)[c]2ccccc2)cc1 [16Ge] |  |  | shift of absorbance and emission compared to related 2,7-disubstituted derivatives ([10]; 3,6-disubstituted versus 2,7-disubstituted): significant blue-shift; absorption maximum ([10]; CH2Cl2 solution): 288 nm; emission maximum ([10]; CH2Cl2 solution): 352 nm; emission from the solid-state ([10]; solid-state): 393 nm
 |  |  |  |  |  |  |  | COc1cc2c(cc1C#Cc1cccc(F)c1)[Si](c1ccccc1)(c1ccccc1)c1cc(C#Cc3cccc(F)c3)c(OC)cc1-2 [meta-fluoro-silafluorene] |  |  | emission (in words) ([10]; methylene chloride solution and solid state): strong emission

SMILES | φTX (quantum yield) [3] | φSBDS (quantum yield) [3] | φCTAB (quantum yield) [3] | φCHAPS (quantum yield) [3] | φSDS (quantum yield) [3] | φTris (quantum yield) [3] | solubility in aqueous solution [4] | φDCM (quantum yield) [5] | spectral change when Triton X-100 is added [2] | solubility in DMSO [4] | also measured
COc1cc2c(cc1C#Cc1ccc(C=O)cc1)[Si](c1ccccc1)(c1ccccc1)c1cc(C#Cc3ccc(C=O)cc3)c(OC)cc1-2 [13Si, 2,7-bis(4-ethynylbenzaldehyde)-3,6-dimethoxy-9,9-diphenylsilafluorene] |  |  |  |  |  |  | low micromolar concentrations |  | dramatic blue shifts and emission enhancements | low millimolar concentrations; also recorded: low micromolar concentrations | emission enhancement upon the addition of detergent/membrane mimics (comparison) [2]: comparable; staining pattern in cells [8]: staining diffuse throughout the cell; emission λmax depending on the solvent ([9]; ethanol, dichloromethane, hexanes): 440-550 nm; emission colour ([9]; in ethanol): green; emission colour ([9]; in nonpolar solvents): blue
